What was measured:
Type in all cases: in vivo
[1] = Sensory evaluation of fizziness enhancement in carbonated water (WILKINSON TANSAN), specialized panelists; details: for Fizziness enhancement evaluation result: average score of seven panelists, 1 to 5
Method: (§1) In the following Examples, the action and effect were verified using a value obtained by calculating an average score of scores for imparting or enhancing fizziness by sensory evaluation conducted by specialized panelists. The expression “1 point” in the evaluation is the evaluation in the case where no component is added at all (no addition).
Diethyl sebacate (manufactured by Inoue Perfumery Mfg. Co., Ltd., the same applies to the following Examples) was separately added to “WILKINSON (registered trademark) TANSAN (manufactured by Asahi Soft Drinks Co., Ltd.)” so as to reach the concentrations shown in Table 2 below, and sensory evaluation was performed by seven specialized panelists to determine the extent to which fizziness was enhanced as compared with a control in which diethyl sebacate was not added.
Diisobutyl adipate (manufactured by Inoue Perfumery Mfg. Co., Ltd., the same applies to the following Examples) was separately added to “WILKINSON (registered trademark) TANSAN (manufactured by Asahi Soft Drinks Co., Ltd.)” so as to reach the concentrations shown in Table 3 below, and sensory evaluation was performed by seven specialized panelists to determine the extent to which fizziness was enhanced as compared with a control in which diisobutyl adipate was not added.
Dimethyl sebacate (manufactured by Tokyo Chemical Industry Co., Ltd.) was separately added to “WILKINSON (registered trademark) TANSAN (manufactured by Asahi Soft Drinks Co., Ltd.)” so as to reach the concentrations shown in Table 4 below, and sensory evaluation was performed by seven specialized panelists to determine the extent to which fizziness was enhanced as compared with a control in which dimethyl sebacate was not added.
Dipropyl adipate (manufactured by Tokyo Chemical Industry Co., Ltd.) was separately added to “WILKINSON (registered trademark) TANSAN (manufactured by Asahi Soft Drinks Co., Ltd.)” so as to reach the concentrations shown in Table 5 below, and sensory evaluation was performed by seven specialized panelists to determine the extent to which fizziness was enhanced as compared with a control in which dipropyl adipate was not added.

[2] = Sensory evaluation of fizziness enhancement in cider-flavored carbonated beverage; details: for Fizziness enhancement evaluation result: average score of seven panelists, 1 to 5
Method: as §1
Diethyl sebacate was separately added to “Mitsuya Cider (registered trademark) Zero Strong (manufactured by Asahi Soft Drinks Co., Ltd.)” so as to reach the concentrations shown in Table 6 below, and sensory evaluation was performed by seven specialized panelists to determine the extent to which fizziness was enhanced as compared with a control in which diethyl sebacate was not added.

[3] = Sensory evaluation of carbonation sensation imparting in black tea beverage with fruit juice; details: for Carbonation sensation imparting evaluation result: average score of seven panelists
Method: as §1
Diethyl sebacate was separately added to “Afternoon Tea Apple Tea Plus (registered trademark) (manufactured by Kirin Beverage Co., Ltd.)” so as to reach the concentrations shown in Table 9 below, and sensory evaluation was performed by seven specialized panelists to determine the extent to which fizziness was imparted as compared with a control in which diethyl sebacate was not added.

[4] = Sensory evaluation of carbonation sensation imparting in cola-flavored compressed tablet candy; details: for Carbonation sensation imparting evaluation result: compressed tablet candy, average score of six panelists, 1 to 5
Method: as §1
(§2) Diethyl sebacate was separately added to a cola-flavored compressed tablet candy prepared according to the formulation shown in Table 14 using a pestle with a diameter of 7 mm, so as to reach a concentration shown in Table 15 below, and sensory evaluation was performed by six panelists to determine the extent to which fizziness was imparted as compared with a control in which diethyl sebacate was not added.

[5] = Sensory evaluation of carbonation sensation imparting in grape-flavored mouthwash; details: for Carbonation sensation imparting evaluation result: grape-flavored mouthwash, average score of five panelists, 1 to 5
Method: as §1
as §2, with “grape-flavored mouthwash” for “a cola-flavored compressed tablet candy”, “18” for “14 using a pestle with a diameter of 7 mm,”, “19” for “15”, “five” for “six”

## CCOC(=O)CCCCCCCCC(=O)OCC [Diethyl sebacate, diethyl sebacate]
[1]
  amelioration of mouthfeel (in words): effect of ameliorating the mouthfeel was also confirmed
  fizziness enhancement (in words): fizziness of carbonated water can be enhanced
[1]; 0.1 ppm
  Fizziness enhancement evaluation result: 1.1 points
[1]; 0.3 ppm
  Fizziness enhancement evaluation result: 2.1 points
[1]; 1 ppm
  Fizziness enhancement evaluation result: 3.7 points
[1]; 5 ppm
  Fizziness enhancement evaluation result: 4.6 points
[1]; 10 ppm
  Fizziness enhancement evaluation result: 4.5 points
[1]; 20 ppm
  Fizziness enhancement evaluation result: 2.5 points
[1]; 50 ppm
  Fizziness enhancement evaluation result: 2.1 points
[1]; 100 ppm
  Fizziness enhancement evaluation result: 1.7 points
[2]
  amelioration of mouthfeel (in words): effect of ameliorating the mouthfeel was also confirmed
  fizziness enhancement (in words): fizziness of the cider-flavored carbonated beverage can be enhanced
[2]; 0.1 ppm
  Fizziness enhancement evaluation result: 1.3 points
[2]; 0.3 ppm
  Fizziness enhancement evaluation result: 1.9 points
[2]; 1 ppm
  Fizziness enhancement evaluation result: 3.7 points
[2]; 5 ppm
  Fizziness enhancement evaluation result: 3.9 points
[2]; 10 ppm
  Fizziness enhancement evaluation result: 3.7 points
[2]; 20 ppm
  Fizziness enhancement evaluation result: 3.6 points
[2]; 50 ppm
  Fizziness enhancement evaluation result: 3.3 points
[2]; 100 ppm
  Fizziness enhancement evaluation result: 1.1 points
[3]
  amelioration of mouthfeel (in words): effect of ameliorating the mouthfeel was also confirmed
[3]; 0.1 ppm, 1 (almost no fizziness) to 5 (extremely imparted)
  Carbonation sensation imparting evaluation result: 1.1 points
[3]; 0.3 ppm, 1 to 5
  Carbonation sensation imparting evaluation result: 1.3 points
[3]; 1 ppm, 1 to 5
  Carbonation sensation imparting evaluation result: 1.9 points
[3]; 5 ppm, 1 to 5
  Carbonation sensation imparting evaluation result: 2.7 points
[3]; 10 ppm, 1 to 5
  Carbonation sensation imparting evaluation result: 2.9 points
[3]; 20 ppm, 1 to 5
  Carbonation sensation imparting evaluation result: 1.7 points
[3]; 50 ppm, 1 to 5
  Carbonation sensation imparting evaluation result: 1.7 points
[3]; 100 ppm, 1 to 5
  Carbonation sensation imparting evaluation result: 1.1 points
[3]; contains no carbon dioxide
  fizziness imparting (in words): fizziness can be imparted to a black tea beverage with fruit juice
[4]; 0.1 ppm
  Carbonation sensation imparting evaluation result: 1.5 points
[4]; 1 ppm
  Carbonation sensation imparting evaluation result: 2.2 points
[4]; 10 ppm
  Carbonation sensation imparting evaluation result: 2.5 points
[4]; 100 ppm
  Carbonation sensation imparting evaluation result: 4.0 points
[4]; 1000 ppm
  Carbonation sensation imparting evaluation result: 3.0 points
[4]; 10000 ppm
  Carbonation sensation imparting evaluation result: 1.5 points
[4]; 20000 ppm
  Carbonation sensation imparting evaluation result: 1.2 points
[4]; compressed tablet candies
  amelioration of mouthfeel (in words): effect of ameliorating the mouthfeel was also confirmed
  fizziness imparting (in words): fizziness can be imparted to compressed tablet candies
[5]; 0.1 ppm
  Carbonation sensation imparting evaluation result: 1.8 points
[5]; 1 ppm
  Carbonation sensation imparting evaluation result: 2.2 points
[5]; 5 ppm
  Carbonation sensation imparting evaluation result: 2.8 points
[5]; 10 ppm
  Carbonation sensation imparting evaluation result: 3.4 points
[5]; 50 ppm
  Carbonation sensation imparting evaluation result: 4.0 points
[5]; 100 ppm
  Carbonation sensation imparting evaluation result: 3.8 points
[5]; 500 ppm
  Carbonation sensation imparting evaluation result: 3.0 points
[5]; mouthwash
  amelioration of mouthfeel (in words): effect of ameliorating the mouthfeel was also confirmed
  fizziness imparting (in words): fizziness can be imparted to the mouthwash
